According to the NIST ThermoML archive (doi:10.1021/acs.jced.9b00100):
Numbers after ± are expanded uncertainties.

What was measured:
[1] = Liquid, Ebulliometric method (Recirculating still)
[2] = refractive index (Na D-line) (dimensionless); settings: 293.15 K; 101.33 kPa; Liquid; Standard Abbe refractometry

vapor or sublimation pressure ([1]; 342.95 K) [kPa] | vapor or sublimation pressure ([1]; 352.65 K) [kPa] | vapor or sublimation pressure ([1]; 362.55 K) [kPa] | refractive index [2] | vapor or sublimation pressure ([1]; 342.34 K) [kPa] | vapor or sublimation pressure ([1]; 352.05 K) [kPa] | vapor or sublimation pressure ([1]; 361.65 K) [kPa] | Structure (SMILES)
13.4 ± 0.24 | 21.4 ± 0.24 | 33.4 ± 0.25 | 1.3989 ± 0.002 |  |  |  | CCCCO [butan-1-ol]
 |  |  | 1.3848 ± 0.002 | 31.5 ± 0.29 | 49.5 ± 0.31 | 73.2 ± 0.33 | CCCO [propan-1-ol]
34.3 ± 0.34 | 48.7 ± 0.27 | 68.1 ± 0.31 | 1.3893 ± 0.002 | 32.7 ± 0.34 | 47.8 ± 0.27 | 66.2 ± 0.31 | CCCC(C)=O [pentan-2-one]
